For this assay, the system named is Gli1 mRNA levels in the murine BCC cell line ASZ-001 (Hh pathway). Description: Hh pathway inhibition: endogenous Gli1 mRNA (qRT-PCR) in ASZ-001 cells. In kind it is cell-based. As to the method: Initial Hh inhibition studies.
General Information for Cell Culture Studies Protocols for general cell culture, qPCR, and Hh inhibition ASZ cells are as previously described.
General Information for Cell Culture Studies. Protocols for general cell culture, qPCR, and Hh inhibition ASZ cells are as previously described.
Gene Expression Assay Protocol (ASZ-001): Cells are seeded (10,000 cells per well; 100 μL total volume per well) in a 96-well tissue culture plate. After 24 h of incubation (37° C., 5% CO2), growth media was removed and replaced with low FBS media. Cells were incubated for an additional 24 h. After this time, DMSO (vehicle control) and liposomes (Aqueous Solution) were added to the wells. […]
Rt-PCR Protocol: Following treatment and incubation periods, both RNA extraction and cDNA synthesis were performed using a TaqMan Cells-to-CT (fast) kit. cDNA synthesis utilized a BioRad MyCycler and was programmed according to the manufacturer's instructions. Quantitative RT-PCR was performed on an ABI 7500 system and made use of the following TaqMan Gene Expression Probes: mouse ActB (Mm00607939_s1) and mouse Gli1 (Mm00494654_m1). Relative gene expression levels were computed via ΔΔCT method using GraphPad Prism. Corresponding IC50 values were calculated as mean±SEM for at least three separate experiments performed in triplicate.
On the technique in general: Quantitative PCR measures a nucleic acid by following its amplification.

The mark [1] stands for this setting: Table 6, ASZ cells, Gli1 mRNA, 48 h incubation, read-out: IC50.
Where [2] appears, read: Table 7, ASZ cells, Gli1 mRNA, 48 h incubation, read-out: IC50.
[3] abbreviates: Table 7, ASZ cells, Gli1 mRNA, 48 h incubation.
Setting [4] is: Mus musculus, ASZ001, Table P2, ASZ cells, Gli1 mRNA, 48 h incubation, read-out: IC50.

Experimental findings from patent US11390613B2, “Azole analogues and methods of use thereof” (UNIVERSITY OF CONNECTICUT, priority 2017, dated 2022) are described below.

Read-outs that look alike come from different tables or passages of the source.

The IC50 is the concentration that inhibits the measured activity by half.

As to `C[C@@]1(c2ccc(Cl)cc2Cl)OC[C@@H](COc2ccc(N3CCN(c4ccc([N+](=O)[O-])cc4)CC3)cc2)O1` [Compound 6, 1-(4-(((2R,4R)-2-(2,4-dichlorophenyl)-2-methyl-1,3-dioxolan-4-yl)methoxy)phenyl)-4-(4-nitrophenyl)piperazine], under “Mus musculus, ASZ001, 48 h”, it took 310 ± 40 nM to reach half-maximal inhibition (IC50).

In turn, `C[C@]1(c2ccc(Cl)cc2Cl)OC[C@@H](COc2ccc(N3CCN(c4ccc([N+](=O)[O-])cc4)CC3)cc2)O1` [Compound 7, 1-(4-(((2S,4R)-2-(2,4-dichlorophenyl)-2-methyl-1,3-dioxolan-4-yl)methoxy)phenyl)-4-(4-nitrophenyl)piperazine] had an IC50 (Mus musculus, ASZ001, 48 h) of 260 ± 40 nM.

Take `C[C@]1(c2ccc(Cl)cc2Cl)OC[C@@H](COc2ccc(N3CCN(c4ccc(N)cc4)CC3)cc2)O1` [Compound 9, 4-(4-(4-(((2S,4R)-2-(2,4-dichlorophenyl)-2-methyl-1,3-dioxolan-4-yl)methoxy)phenyl)piperazin-1-yl)aniline]: the IC50 (Mus musculus, ASZ001, 48 h) came out at 390 ± 90 nM.

Take `C[C@@]1(c2ccc(Cl)cc2Cl)OC[C@@H](COc2ccc(N3CCN(c4ccc(NC(=O)c5ccccc5)cc4)CC3)cc2)O1` [Compound 10, N-(4-(4-(4-(((2R,4R)-2-(2,4-dichlorophenyl)-2-methyl-1,3-dioxolan-4-yl)methoxy)phenyl)piperazin-1-yl)phenyl)benzamide]: the IC50 under setting [1] was above 10000 nM.

Turning to `C[C@@]1(c2ccc(Cl)cc2Cl)OC[C@@H](COc2ccc(N3CCN(c4ccc(NC(=O)c5ccc6ccccc6c5)cc4)CC3)cc2)O1` [Compound 11, N-(4-(4-(4-(((2R,4R)-2-(2,4-dichlorophenyl)-2-methyl-1,3-dioxolan-4-yl)methoxy)phenyl)piperazin-1-yl)phenyl)-2-naphthamide], the IC50 under setting [1] was above 10000 nM.

`C[C@@]1(c2ccc(Cl)cc2Cl)OC[C@@H](COc2ccc(N3CCN(c4ccc(NC(=O)c5ccccn5)cc4)CC3)cc2)O1` [Compound 12, N-(4-(4-(4-(((2R,4R)-2-(2,4-dichlorophenyl)-2-methyl-1,3-dioxolan-4-yl)methoxy)phenyl)piperazin-1-yl)phenyl)picolinamide]: the IC50 under setting [1] was above 10000 nM.

Take `C[C@@]1(c2ccc(Cl)cc2Cl)OC[C@@H](COc2ccc(N3CCN(c4ccc(NC(=O)c5ccncc5)cc4)CC3)cc2)O1` [Compound 14, N-(4-(4-(4-(((2R,4R)-2-(2,4-dichlorophenyl)-2-methyl-1,3-dioxolan-4-yl)methoxy)phenyl)piperazin-1-yl)phenyl)isonicotinamide]: the IC50 under setting [1] was above 10000 nM.

Take `C[C@]1(c2ccc(Cl)cc2Cl)OC[C@@H](COc2ccc(N3CCN(c4ccc(NC(=O)c5ccccc5)cc4)CC3)cc2)O1` [Compound 15, N-(4-(4-(4-(((2S,4R)-2-(2,4-dichlorophenyl)-2-methyl-1,3-dioxolan-4-yl)methoxy)phenyl)piperazin-1-yl)phenyl)benzamide]: the IC50 under setting [1] is above 10000 nM.

Turning to `C[C@]1(c2ccc(Cl)cc2Cl)OC[C@@H](COc2ccc(N3CCN(c4ccc(NC(=O)c5ccc6ccccc6c5)cc4)CC3)cc2)O1` [Compound 16, N-(4-(4-(4-(((2S,4R)-2-(2,4-dichlorophenyl)-2-methyl-1,3-dioxolan-4-yl)methoxy)phenyl)piperazin-1-yl)phenyl)-2-naphthamide], the IC50 under setting [1] was above 10000 nM.

Regarding `C[C@]1(c2ccc(Cl)cc2Cl)OC[C@@H](COc2ccc(N3CCN(c4ccc(NC(=O)c5ccccn5)cc4)CC3)cc2)O1` [Compound 17, N-(4-(4-(4-(((2S,4R)-2-(2,4-dichlorophenyl)-2-methyl-1,3-dioxolan-4-yl)methoxy)phenyl)piperazin-1-yl)phenyl)picolinamide], under “Mus musculus, ASZ001, 48 h”, the IC50 was 3900 ± 300 nM.

On to `C[C@]1(c2ccc(Cl)cc2Cl)OC[C@@H](COc2ccc(N3CCN(c4ccc(NC(=O)c5ccncc5)cc4)CC3)cc2)O1` [Compound 19, N-(4-(4-(4-(((2S,4R)-2-(2,4-dichlorophenyl)-2-methyl-1,3-dioxolan-4-yl)methoxy)phenyl)piperazin-1-yl)phenyl)isonicotinamide], for which, under setting [1], the 50% inhibitory concentration (IC50) was above 10000 nM.

For `C[C@@]1(c2ccc(Cl)cc2Cl)OC[C@@H](COc2ccc(N3CCN(c4ccc(NC(=O)c5ccccc5O)cc4)CC3)cc2)O1` [Compound 26, N-(4-(4-(4-(((2R,4R)-2-(2,4-dichlorophenyl)-2-methyl-1,3-dioxolan-4-yl)methoxy)phenyl)piperazin-1-yl)phenyl)-2-hydroxybenzamide], under setting [1], the IC50 was above 10000 nM.

Consider `C[C@@]1(c2ccc(Cl)cc2Cl)OC[C@@H](COc2ccc(N3CCN(c4ccc(NC(=O)c5ccc(O)cc5)cc4)CC3)cc2)O1` [Compound 28, N-(4-(4-(4-(((2R,4R)-2-(2,4-dichlorophenyl)-2-methyl-1,3-dioxolan-4-yl)methoxy)phenyl)piperazin-1-yl)phenyl)-4-hydroxybenzamide], for which the IC50 under setting [1] was above 10000 nM.

For the setting “Mus musculus, ASZ001, 48 h”, `C[C@]1(c2ccc(Cl)cc2Cl)OC[C@@H](COc2ccc(N3CCN(c4ccc(NC(=O)c5ccccc5O)cc4)CC3)cc2)O1` [Compound 29, N-(4-(4-(4-(((2S,4R)-2-(2,4-dichlorophenyl)-2-methyl-1,3-dioxolan-4-yl)methoxy)phenyl)piperazin-1-yl)phenyl)-2-hydroxybenzamide] had an IC50 of 2200 ± 300 nM.

For the compound `C[C@]1(c2ccc(Cl)cc2Cl)OC[C@@H](COc2ccc(N3CCN(c4ccc(NC(=O)c5ccc(O)cc5)cc4)CC3)cc2)O1` [Compound 31, N-(4-(4-(4-(((2S,4R)-2-(2,4-dichlorophenyl)-2-methyl-1,3-dioxolan-4-yl)methoxy)phenyl)piperazin-1-yl)phenyl)-4-hydroxybenzamide], the IC50 under setting [1] was found to be 3000 ± 100 nM.

Take `C[C@]1(c2ccc(Cl)cc2Cl)OC[C@@H](COc2ccc(N3CCN(c4ccc(NC(=O)c5cccc(Cl)c5)cc4)CC3)cc2)O1` [Compound 32, 3-chloro-N-(4-(4-(4-(((2S,4R)-2-(2,4-dichlorophenyl)-2-methyl-1,3-dioxolan-4-yl)methoxy)phenyl)piperazin-1-yl)phenyl)benzamide]: the IC50 under setting [2] was above 10000 nM.

Under “Mus musculus, ASZ001, 48 h”, `COc1cccc(C(=O)Nc2ccc(N3CCN(c4ccc(OC[C@@H]5CO[C@](C)(c6ccc(Cl)cc6Cl)O5)cc4)CC3)cc2)c1` [Compound 33, N-(4-(4-(4-(((2S,4R)-2-(2,4-dichlorophenyl)-2-methyl-1,3-dioxolan-4-yl)methoxy)phenyl)piperazin-1-yl)phenyl)-3-methoxybenzamide] registered an IC50 of 5700 nM.

On to `C[C@]1(c2ccc(Cl)cc2Cl)OC[C@@H](COc2ccc(N3CCN(c4ccc(NC(=O)c5ccoc5)cc4)CC3)cc2)O1` [Compound 35, N-(4-(4-(4-(((2S,4R)-2-(2,4-dichlorophenyl)-2-methyl-1,3-dioxolan-4-yl)methoxy)phenyl)piperazin-1-yl)phenyl)furan-3-carboxamide], for which the “IC50 (μM)” value under setting [3] was “inactive”. Under setting [2], the 50% inhibitory concentration (IC50) is above 10000 nM.

In the case of `C[C@]1(c2ccc(Cl)cc2Cl)OC[C@@H](COc2ccc(N3CCN(c4ccc(NC(=O)c5ccsc5)cc4)CC3)cc2)O1` [Compound 36, N-(4-(4-(4-(((2S,4R)-2-(2,4-dichlorophenyl)-2-methyl-1,3-dioxolan-4-yl)methoxy)phenyl)piperazin-1-yl)phenyl)thiophene-3-carboxamide], the “IC50 (μM)” value under setting [3] was “inactive”. Further, the half-inhibitory concentration (IC50) under setting [2] is above 10000 nM.

Take `C[C@@]1(c2ccc(Cl)cc2Cl)OC[C@@H](COc2ccc(N3CCN(c4ccc(-n5cn[nH]c5=O)cc4)CC3)cc2)O1` [Compound 41]: the IC50 (Table 8, ASZ cells, Gli1 mRNA, 48 h incubation, read-out: IC50) is 140 nM.

`C[C@]1(c2ccc(Cl)cc2Cl)OC[C@@H](COc2ccc(N3CCN(c4ccc(-n5cn[nH]c5=O)cc4)CC3)cc2)O1` [Compound 42, 4-(4-(4-(4-(((2S,4R)-2-(2,4-dichlorophenyl)-2-methyl-1,3-dioxolan-4-yl)methoxy)phenyl)piperazin-1-yl)phenyl)-1H-1,2,4-triazol-5(4H)-one] returned a half-inhibitory concentration (IC50) (Mus musculus, ASZ001, 48 h) of 210 nM.

Turning to `CC1(c2ccc(Cl)cc2Cl)OCC(COc2ccc(N3CCN(c4ccc(-n5cnn(CCC(=O)O)c5=O)cc4)CC3)cc2)O1` (centres unmarked) [Compound I17, 3-(4-(4-(4-(4-((2-(2,4-dichlorophenyl)-2-methyl-1,3-dioxolan-4-yl)methoxy)phenyl)piperazin-1-yl)phenyl)-5-oxo-4,5-dihydro-1H-1,2,4-triazol-1-yl)propanoic acid], the IC50 under setting [4] amounted to 12 ± 5 nM.

For `C[C@]1(c2ccc(F)cc2F)C[C@H](COc2ccc(N3CCN(c4ccc(-n5cnn(CCC(=O)O)c5=O)cc4)CC3)cc2)CO1` [Compound P13, 3-(4-(4-(4-(4-(((3R,5R)-5-(2,4-difluorophenyl)-5-methyltetrahydrofuran-3-yl)methoxy)phenyl)piperazin-1-yl)phenyl)-5-oxo-4,5-dihydro-1H-1,2,4-triazol-1-yl)propanoic acid], the IC50 under setting [4] came out at 32 ± 10 nM.

Take `C[C@]1(c2ccc(F)cc2F)C[C@H](COc2ccc(N3CCN(c4ccc(-n5cnn(CC(=O)O)c5=O)cc4)CC3)cc2)CO1` [Compound P14, 2-(4-(4-(4-(4-(((3R,5R)-5-(2,4-difluorophenyl)-5-methyltetrahydrofuran-3-yl)methoxy)phenyl)piperazin-1-yl)phenyl)-5-oxo-4,5-dihydro-1H-1,2,4-triazol-1-yl)acetic acid]: the IC50 under setting [4] stood at 150 ± 20 nM.
